Legend:
Assay in all cases: Gel-based competitive ABPP in vitro, mouse brain membrane proteome
Assay type in all cases: biochemical
[1] = target: T1, ABHD6 (Mus musculus, UniProt Q8R2Y0)
T1 construct: from tissue; host or cells: mouse brain, membrane fraction
T1 sequence (Q8R2Y0 1-336): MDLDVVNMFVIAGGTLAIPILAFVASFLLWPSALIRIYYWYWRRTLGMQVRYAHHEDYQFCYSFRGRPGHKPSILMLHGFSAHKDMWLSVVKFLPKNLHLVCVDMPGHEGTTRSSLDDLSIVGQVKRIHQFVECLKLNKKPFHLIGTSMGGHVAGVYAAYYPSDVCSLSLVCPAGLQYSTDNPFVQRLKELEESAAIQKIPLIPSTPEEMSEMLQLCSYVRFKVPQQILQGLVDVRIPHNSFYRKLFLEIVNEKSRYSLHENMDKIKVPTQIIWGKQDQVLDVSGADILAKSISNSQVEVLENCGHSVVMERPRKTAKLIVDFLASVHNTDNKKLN
Method: (§1) Assay Overview: The purpose of this assay was to determine whether test compounds can inhibit LYPLA1 and LYPLA2 in a complex proteomic lysate and to assess anti-target inhibition using a competitive activity-based proteomic profiling (ABPP) assay. In this assay, a complex proteome endogenously expressing LYPLA1/2 was incubated with test compound followed by reaction with a rhodamine-conjugated fluorophosphonate (FP-Rh) serine-hydrolase specific activity-based probe. The reaction products were separated by SDS-PAGE and visualized in-gel using a flatbed fluorescence scanner. The percentage activity remaining was determined by measuring the integrated optical density of the bands. […] Percent inhibition was calculated relative to a DMSO (no compound) control.
(§2) Protocol Summary: Mouse brain membrane proteome (50 μL reaction volume, 1 mg/mL in DPBS) was treated with 0.1-100 μM test compound (1 μL of a 50× stock in DMSO) for 30 minutes at 37° C. FP-Rh (1 μL of 50× stock in DMSO, Thermo #88318) was added to a final concentration of 2 μM. The reactions were incubated for 30 minutes at 25° C., quenched with 16 μL 4×SDS-PAGE loading buffer (reducing), separated by SDS-PAGE and visualized by in-gel fluorescent scanning. The percentage activity remaining was determined by measuring the integrated optical density of the bands relative to a DMSO-only (no compound) control. Assay Cutoff: Compounds with ≥50% inhibition of targets at 1 μM test compound concentration were considered active.
Assay Overview: The purpose of this assay was to determine IC50 values of powder samples of test compounds for enzyme of interest activity, and anti-targets in a complex proteomic lysate using a gel-based competitive ABPP assay. In this assay, a complex proteome was incubated with test compound followed by reaction with FP-Rh and SDS-PAGE analysis as described above.
Protocol Summary: Soluble HeLa cell proteome (50 μL reaction volume, 1 mg/mL in DPBS) or mouse brain membrane proteome (50 μL reaction volume, 1 mg/mL in DPBS) was treated with varying concentrations of test compound (1 μL of a 50× stock in DMSO) for 30 minutes at 37° C. FP-Rh (1 μL of 50× stock in DMSO) was added to a final concentration of 2 μM. The reaction was incubated for 30 minutes at 25° C., quenched with 16 μL 4×SDS-PAGE loading buffer (reducing), separated by SDS-PAGE and visualized by in-gel fluorescent scanning. The percentage activity remaining was determined by measuring the integrated optical density of the enzymes of interest, and anti-target bands relative to a DMSO-only (no compound) control. IC50 values were determined from dose-response curves from three replicates at each inhibitor concentration: 1, 10, 100, 1000, 10000 nM and 0.01, 0.1, 1, 10, 100, 1000, 10000, 50000, and 100000 nM.

[2] = target: T2, ABHD12 (Mus musculus, UniProt Q99LR1); details: mouse brain (mem) proteome
T2 construct: from tissue; host or cells: mouse brain, membrane fraction
T2 sequence (Q99LR1 1-398): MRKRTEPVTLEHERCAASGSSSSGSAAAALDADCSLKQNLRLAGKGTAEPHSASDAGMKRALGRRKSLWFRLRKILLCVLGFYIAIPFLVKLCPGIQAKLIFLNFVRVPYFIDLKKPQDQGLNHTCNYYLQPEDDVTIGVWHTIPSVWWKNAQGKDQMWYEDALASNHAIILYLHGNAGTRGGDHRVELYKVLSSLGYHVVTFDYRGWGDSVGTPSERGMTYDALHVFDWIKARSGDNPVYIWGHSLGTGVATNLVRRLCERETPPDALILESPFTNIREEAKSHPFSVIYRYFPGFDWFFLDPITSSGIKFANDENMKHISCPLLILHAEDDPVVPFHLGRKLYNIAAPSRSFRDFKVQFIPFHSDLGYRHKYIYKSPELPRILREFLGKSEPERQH
Method: as §1, §2

[3] = target: T3, ABHD3 (Mus musculus, UniProt Q91ZH7); details: mouse brain (mem) proteome
T3 construct: from tissue; host or cells: mouse brain, membrane fraction
T3 sequence (Q91ZH7 1-411): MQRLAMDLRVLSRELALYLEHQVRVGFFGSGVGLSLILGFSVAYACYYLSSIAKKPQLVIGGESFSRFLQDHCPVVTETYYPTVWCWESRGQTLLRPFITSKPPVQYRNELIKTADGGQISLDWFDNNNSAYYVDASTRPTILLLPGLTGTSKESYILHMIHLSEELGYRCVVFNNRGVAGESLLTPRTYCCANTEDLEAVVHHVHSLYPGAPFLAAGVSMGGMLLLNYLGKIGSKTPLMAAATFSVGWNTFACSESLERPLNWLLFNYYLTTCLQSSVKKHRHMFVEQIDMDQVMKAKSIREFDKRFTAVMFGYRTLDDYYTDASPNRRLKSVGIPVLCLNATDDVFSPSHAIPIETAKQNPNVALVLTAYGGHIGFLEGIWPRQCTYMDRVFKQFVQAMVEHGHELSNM
Method: as §1, §2

[4] = target: T4, PLA2G7 (Mus musculus, UniProt Q60963); details: mouse brain (mem) proteome
T4 construct: from tissue; host or cells: mouse brain, membrane fraction
T4 sequence (Q60963 22-440): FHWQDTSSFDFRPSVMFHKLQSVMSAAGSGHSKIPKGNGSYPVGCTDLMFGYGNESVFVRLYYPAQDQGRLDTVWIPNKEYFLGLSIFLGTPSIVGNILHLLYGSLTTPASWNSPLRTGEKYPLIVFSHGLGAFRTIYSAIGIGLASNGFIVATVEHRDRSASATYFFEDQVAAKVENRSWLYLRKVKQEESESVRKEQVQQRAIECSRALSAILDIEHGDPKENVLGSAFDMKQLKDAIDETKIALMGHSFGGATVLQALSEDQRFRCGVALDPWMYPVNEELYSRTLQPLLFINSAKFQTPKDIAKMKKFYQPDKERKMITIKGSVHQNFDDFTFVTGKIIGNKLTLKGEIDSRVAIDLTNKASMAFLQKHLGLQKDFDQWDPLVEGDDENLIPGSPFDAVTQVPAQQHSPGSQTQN
Method: as §1, §2

Structure (SMILES)	IC50 ([1]; anti-target, mouse brain membrane proteome, read-out: ABHD6 IC50)	ABHD6 in vitro enzyme activity, % @ 20 μM ([1]; 20 μM, mouse brain (mem) proteome)	ABHD6 in vitro enzyme activity, % @ 1 μM ([1]; mouse brain (mem) proteome)	ABHD12 in vitro enzyme activity, % @ 10 μM [2]	ABHD3 in vitro enzyme activity, % @ 10 μM [3]	PLA2G7 in vitro enzyme activity, % @ 10 μM [4]	PLA2G7 in vitro enzyme activity, % @ 1 μM [4]
O=C(ON1C(=O)C2CN(C(=O)N3CCOCC3)CCN2C1=O)N1CCC(CCc2ccc(Cl)cc2)CC1 (centres unmarked) [Compound 1, 7-(morpholine-4-carbonyl)-1,3-dioxohexahydroimidazo[1,5-a]pyrazin-2(3H)-yl 4-(4-chloro-phenethyl)piperidine-1-carboxylate]	3.15 nM						
O=C(ON1C(=O)C2CN(Cc3ccc(Oc4ccccc4)cc3)CCN2C1=O)N1CCC(c2ccccc2)CC1 (centres unmarked) [Compound 38, 1,3-dioxo-7-(4-phenoxybenzyl)hexahydroimidazo[1,5-a]pyrazin-2(3H)-yl 4-phenylpiperidine-1-carboxylate]		100% @					
O=C(ON1C(=O)[C@@H]2CN(Cc3ccc(Br)cc3)CCN2C1=O)N1CCC(CCc2ccc(Cl)cc2)CC1 [Compound 40, (S)-7-(4-bromobenzyl)-1,3-dioxohexahydroimidazo[1,5-a]pyrazin-2(3H)-yl4-(4-chlorophenethyl)piperidine-1-carboxylate]			100% @	0% @	0% @	100% @	
O=C(ON1C(=O)[C@@H]2CN(C(=O)N3CCOCC3)CCN2C1=O)N1CCN(CCc2ccc(Cl)cc2)CC1 [Compound 41, (S)-7-(morpholine-4-carbonyl)-1,3-dioxo-hexahydroimidazo[1,5-a]pyrazin-2(3H)-yl 4-(4-chlorophenethyl)piperazine-1-carboxylate]			100% @	0% @	0% @	0% @	
COc1ccc(N2CCN(C(=O)ON3C(=O)[C@@H]4CN(CC5CCN(Cc6ccccc6)CC5)CCN4C3=O)CC2)cc1 [Compound 42, (S)-7-((1-benzylpiperidin-4-yl)methyl)-1,3-dioxo-hexahydroimidazo[1,5-a]pyrazin-2(3H)-yl 4-(4-methoxyphenyl)piperazine-1-carboxylate]			100% @	0% @	0% @		100% @
COc1ccc(N2CCN(C(=O)ON3C(=O)[C@H]4CN(CC5CCN(Cc6ccccc6)CC5)CCN4C3=O)CC2)cc1 [Compound 43, (R)-7-((1-benzylpiperidin-4-yl)methyl)-1,3-dioxo-hexahydroimidazo[1,5-a]pyrazin-2(3H)-yl 4-(4-methoxyphenyl)piperazine-1-carboxylate]			100% @	0% @	0% @		100% @
C#CCOc1ccc(N2CCN(C(=O)ON3C(=O)[C@@H]4CN(Cc5ccc(Oc6ccccc6)cc5)CCN4C3=O)CC2)cc1 [Compound 44, (S)-1,3-dioxo-7-(4-phenoxybenzyl)-hexahydroimidazo[1,5-a]pyrazin-2(3H)-yl 4-(4-(prop-2-ynyloxy)phenyl)piperazine-1-carboxylate]			100% @	0% @	0% @		100% @
C#CCOc1ccc(N2CCN(C(=O)ON3C(=O)[C@H]4CN(Cc5ccc(Oc6ccccc6)cc5)CCN4C3=O)CC2)cc1 [Compound 45, (R)-1,3-dioxo-7-(4-phenoxybenzyl)-hexahydroimidazo[1,5-a]pyrazin-2(3H)-yl 4-(4-(prop-2-ynyloxy)phenyl)piperazine-1-carboxylate]			100% @	0% @	75% @		100% @
C#CCOc1ccc(N2CCN(C(=O)ON3C(=O)[C@@H]4CN(CC5CCN(Cc6ccccc6)CC5)CCN4C3=O)CC2)cc1 [Compound 46, (S)-7-((1-benzylpiperidin-4-yl)methyl)-1,3-dioxo-hexahydroimidazo[1,5-a]pyrazin-2(3H)-yl 4-(4-(prop-2-ynyloxy)phenyl)piperazine-1-carboxylate]			100% @	0% @	0% @		100% @
C#CCOc1ccc(N2CCN(C(=O)ON3C(=O)[C@H]4CN(CC5CCN(Cc6ccccc6)CC5)CCN4C3=O)CC2)cc1 [Compound 47, (R)-7-((1-benzylpiperidin-4-yl)methyl)-1,3-dioxo-hexahydroimidazo[1,5-a]pyrazin-2(3H)-yl 4-(4-(prop-2-ynyloxy)phenyl)piperazine-1-carboxylate]			100% @	0% @	0% @		100% @
C#Cc1ccc(CCC2CCN(C(=O)ON3C(=O)[C@@H]4CN(C(=O)N5CCOCC5)CCN4C3=O)CC2)cc1 [Compound 48, (S)-7-(morpholine-4-carbonyl)-1,3-dioxo-hexahydroimidazo[1,5-a]pyrazin-2(3H)-yl 4-(4-ethynylphenethyl)piperidine-1-carboxylate]			100% @	50% @	0% @	75% @	

Reference: patent US9981972B2, “N-hydroxy bicyclic hydantoin carbamates as tools for identification of serine hydrolase targets” (ABIDE THERAPEUTICS, INC., priority 2014, dated 2018)
